Source: the NIST ThermoML archive (doi:10.1016/j.fluid.2017.03.021)

Settings: 101.33 kPa, Liquid, Vibrating tube method

CCCCCC[n+]1ccn(C)c1.O=S(=O)([N-]S(=O)(=O)C(F)(F)F)C(F)(F)F
Settings | mass density [kg/m3]
293.15 K | 1377.1
298.15 K | 1372.5
303.15 K | 1367.8
308.15 K | 1363.5
313.15 K | 1358.7
318.15 K | 1354.3
323.15 K | 1349.6
328.15 K | 1345.2
333.15 K | 1340.5
338.15 K | 1336.2
343.15 K | 1331.6
